Reference: PMC9856093, “CIGB-300 Anticancer Peptide Differentially Interacts with CK2 Subunits and Regulates Specific Signaling Mediators in a Highly Sensitive Large Cell Lung Carcinoma Cell Model” (Biomedicines, 2022)
Positions of bridges follow the written chain, without caps; N, C: chain ends. Non-standard residues stand in square brackets, D forms with d. Residues, ends and D or L forms follow the SMILES beside them. βAla = NCCC(=O)O

Legend:
NCI-H460 cells [1] = assay: Cell cycle analysis, PI staining, flow cytometry; format: cell-based, human
Method: For cell cycle analysis, NCI-H460 cells were incubated with 30 µM CIGB-300 or with 5 µM CX-4945, respectively, during 6 h, 24 h and 48 h. Following treatment with the peptide, cells were collected by centrifugation, washed with PBS, and fixed at 4 °C for 2 h with ice-cold 70% ethanol. After fixation, cells were treated with DNase-free RNase A (Sigma, St. Louis, MO, USA) and subsequently stained at 37 °C for 20 min with […] PI solution (Sigma, St. Louis, MO, USA). Stained cells were analyzed in the above-mentioned Partec CyFlow Space flow cytometry, and FlowJo Software (v7.6.1) was used for data processing and visualization. All experiments were performed at least four times.

CK2β = assay: In vivo pull-down plus Western blot; format: binding, human; settings: biotin-tagged peptide 30 µM, 0.5 h, NCI-H460 cells
Method: (§1) For in vivo pull-down assays, N-terminal biotin tagged CIGB-300 (CIGB-300-B) was added to NCI-H460 cells at a final concentration of 30 µM and incubated for 30 min at 37 °C and 5% CO2. Subsequently, cells were collected, washed, and lysed in PBS solution (Sigma, St. Louis, MO, USA) containing 1 mM DTT (Sigma, St. Louis, MO, USA), Triton X-100 (1%), and complete protease inhibitor (Roche, Basel, Switzerland). Cellular lysates were cleared by centrifugation and added to 30 μL of pre-equilibrated streptavidin–sepharose matrix (GE Healthcare, Chicago, IL, USA). In the case of RNA pre-treatment, another cell extract was incubated with RNAase A (10 mg/mL) (Promega, Madison, WI, USA) for 20 min at 37 °C. Following 1 h at 4 °C, the matrix was collected by centrifugation and extensively washed with cold PBS 1 mM and DTT. Proteins bound to streptavidin–sepharose matrix were digested with trypsin (Promega, Madison, WI, USA) during 16 h or eluted for Western blot analysis. In parallel, untreated cells were subjected to the same experimental procedure to identify those proteins non-specifically bound to streptavidin–sepharose matrix. Proteins were resolved in 12% SDS-PAGE and then transferred to a nitrocellulose membrane. […]

RPS6 = assay: In vivo pull-down plus Western blot; format: binding, human; settings: biotin-tagged peptide 30 µM, 0.5 h, NCI-H460 cells; RNAase free assay
Method: as §1

other solid tumor cells = test system: other solid tumor cells; parameters: method as in PMID 35155265; settings: read-out: IC50 mean value, antiproliferative effect; cited from earlier work
NCI-H125 = NCI-H125 NSCLC cell line; cited from earlier work
CK2α′ = biological target: T1, CK2α′ (Homo sapiens, UniProt P19784); assay: In vivo pull-down plus Western blot; format: binding; settings: biotin-tagged peptide 30 µM, 0.5 h, NCI-H460 cells
T1 construct: endogenous in cells; host or cells: NCI-H460
T1 sequence (P19784 whole entry): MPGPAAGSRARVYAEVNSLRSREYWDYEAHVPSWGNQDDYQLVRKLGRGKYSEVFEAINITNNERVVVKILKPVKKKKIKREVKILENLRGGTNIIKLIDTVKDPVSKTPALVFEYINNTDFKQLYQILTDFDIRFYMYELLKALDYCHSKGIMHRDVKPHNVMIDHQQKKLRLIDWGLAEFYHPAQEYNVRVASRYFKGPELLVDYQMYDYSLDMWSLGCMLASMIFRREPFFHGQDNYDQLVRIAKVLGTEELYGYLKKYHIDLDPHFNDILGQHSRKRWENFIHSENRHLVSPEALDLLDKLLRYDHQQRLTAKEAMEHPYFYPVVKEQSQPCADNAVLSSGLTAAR
Method: as §1, with “membrane. For Western blot analysis, a mouse monoclonal antibody against CK2α (Abcam, Cambridge, UK), a rabbit polyclonal antibody against CK2α′ (Abcam, Cambridge, UK), a mouse monoclonal antibody against CK2β (Sigma, St. Louis, MO, USA), and monoclonal rabbit antibodies against PTEN and RPS6 (Cell Signaling, Danvers, MA, USA), respectively, were used as primary antibodies. Detection was performed with peroxidase-conjugated anti-mouse IgG 1:5000 (Sigma, St. Louis, MO, USA) and anti-rabbit IgG 1:5000 (Sigma, St. Louis, MO, USA). […]” for “membrane.”

CK2α = biological target: T2, CK2α (Homo sapiens, UniProt P68400); assay: In vivo pull-down plus Western blot; format: binding; settings: biotin-tagged peptide 30 µM, 0.5 h, NCI-H460 cells
T2 construct: endogenous in cells; host or cells: NCI-H460
T2 sequence (P68400 whole entry): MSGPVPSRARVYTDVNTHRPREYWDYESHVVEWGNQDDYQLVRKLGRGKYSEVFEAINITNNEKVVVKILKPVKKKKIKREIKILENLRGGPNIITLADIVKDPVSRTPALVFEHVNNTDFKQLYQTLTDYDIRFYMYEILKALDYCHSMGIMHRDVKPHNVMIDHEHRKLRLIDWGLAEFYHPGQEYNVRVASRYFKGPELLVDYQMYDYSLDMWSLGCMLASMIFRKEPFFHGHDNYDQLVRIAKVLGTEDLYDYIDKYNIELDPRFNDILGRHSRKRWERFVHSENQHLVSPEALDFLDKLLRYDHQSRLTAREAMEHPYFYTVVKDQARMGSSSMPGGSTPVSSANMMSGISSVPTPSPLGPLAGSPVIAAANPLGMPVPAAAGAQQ
Method: as §1, with “membrane. For Western blot analysis, a mouse monoclonal antibody against CK2α (Abcam, Cambridge, UK), a rabbit polyclonal antibody against CK2α′ (Abcam, Cambridge, UK), a mouse monoclonal antibody against CK2β (Sigma, St. Louis, MO, USA), and monoclonal rabbit antibodies against PTEN and RPS6 (Cell Signaling, Danvers, MA, USA), respectively, were used as primary antibodies. Detection was performed with peroxidase-conjugated anti-mouse IgG 1:5000 (Sigma, St. Louis, MO, USA) and anti-rabbit IgG 1:5000 (Sigma, St. Louis, MO, USA). […]” for “membrane.”

PTEN = biological target: T3, PTEN (Homo sapiens, UniProt P60484); assay: In vivo pull-down plus Western blot; format: binding; settings: biotin-tagged peptide 30 µM, 0.5 h, NCI-H460 cells
T3 construct: endogenous in cells; host or cells: NCI-H460
T3 sequence (P60484 whole entry): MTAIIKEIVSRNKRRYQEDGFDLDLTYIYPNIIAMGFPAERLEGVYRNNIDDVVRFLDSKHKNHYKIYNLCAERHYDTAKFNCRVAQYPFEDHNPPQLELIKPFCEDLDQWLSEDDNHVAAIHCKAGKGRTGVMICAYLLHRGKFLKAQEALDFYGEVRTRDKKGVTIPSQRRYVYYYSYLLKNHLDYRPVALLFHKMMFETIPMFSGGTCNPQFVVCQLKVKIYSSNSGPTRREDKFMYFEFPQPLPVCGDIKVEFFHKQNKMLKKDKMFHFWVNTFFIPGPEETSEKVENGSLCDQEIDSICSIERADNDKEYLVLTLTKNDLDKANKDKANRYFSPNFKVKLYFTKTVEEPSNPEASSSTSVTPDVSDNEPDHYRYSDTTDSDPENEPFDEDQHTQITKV
Method: as §1, with “membrane. For Western blot analysis, a mouse monoclonal antibody against CK2α (Abcam, Cambridge, UK), a rabbit polyclonal antibody against CK2α′ (Abcam, Cambridge, UK), a mouse monoclonal antibody against CK2β (Sigma, St. Louis, MO, USA), and monoclonal rabbit antibodies against PTEN and RPS6 (Cell Signaling, Danvers, MA, USA), respectively, were used as primary antibodies. Detection was performed with peroxidase-conjugated anti-mouse IgG 1:5000 (Sigma, St. Louis, MO, USA) and anti-rabbit IgG 1:5000 (Sigma, St. Louis, MO, USA). […]” for “membrane.”

p-RPS6 (S235/236) = assay: Western blot, CK2 downstream signaling; format: cell-based, human; settings: NCI-H460, 30 µM, 48 h
Method: (§2) NCI-H460 cells were plated on six-well cell culture plates at 1 × 10^6 cells per well and incubated overnight at 37 °C and 5% CO2. […] After incubation, the culture medium was withdrawn, and cells were washed with PBS and lysed in RIPA buffer containing protease/phosphatase inhibitor (Thermo Fisher Scientific, Waltham, MA, USA). Western blot detection was carried out as described (4.6). Primary antibodies against phospho-PTEN (S380) and total PTEN (Cell Signaling Technology, Danvers, MA, USA), phospho-RPS6 (S235/236) and total RPS6 (Cell Signaling Technology, Danvers, MA, USA), Ezrin (Abcam, Cambridge, UK), c-Myc (CIGB, SP, Cuba), and Fibrillarin (Abcam, Cambridge, UK) were used. Primary antibodies against CK2 subunits were used as previously described. All experiments were performed at least two times.

A549 = A549 NSCLC cell line; cited from earlier work
Excerpt: In this work, we evaluated for the first time the molecular events supporting CK2 inhibition by CIGB-300 in an LCLC in vitro model such as NCI-H460 cells.

c-Myc = assay: Western blot, cancer molecular markers; format: cell-based, human
Method: as §2

NCI-H460 cells [2] = assay: Annexin V-FITC/PI staining, apoptosis by flow cytometry; format: cell-based, human
Method: Apoptosis of NCI-H460 cells was measured using FITC Annexin V Apoptosis Detection Kit (BD Biosciences, San Jose, CA, USA). […] NCI-H460 cells were incubated also with 5 µM CX-4945 for 6 h, 24 h and 48 h. Subsequently, cells were washed twice with cold PBS and resuspended in binding buffer (1X) at a final concentration of 1 × 10^6 cells/mL. Finally, 5 µL of FITC Annexin V and PI were added, and cell suspensions were incubated for 15 min at room temperature in the dark. Flow cytometric analysis of stained cells was performed as previously described. All experiments were performed at least two times.

[3] = test system: mRNA levels of CK2 subunits; assay: Quantitative real-time PCR of CK2 subunit transcripts; format: cell-based, human; settings: normalised to GAPDH and HMBS
Method: Three replicates per condition were used. […] Louis, MO, USA) for RNA isolation (AllPrep DNA/RNA/miRNA Universal Kit, Qiagen, Valencia, CA, USA), according to the manufacturer protocol. All RNA samples were checked by Nanodrop spectrophotometer to measure concentration (ng/μL) and OD relation (260/280 nm). […] Complementary (c)DNAs were obtained from 500 ng of total RNAs, using the Transcriptor First Strand cDNA Synthesis Kit package (Roche, Mannheim, Germany), following manufacturer instructions. […] We amplified two genes for normalization of GAPDH (glyceraldehyde-3-phosphate dehydrogenase) and HMBS (hydroxymethyl-bilane synthase), and the transcripts encoding for CK2 subunits. All the oligonucleotides were synthetized in the Synthesis Department at CIGB (Table S1). Runs were carried out in the LightCycler® 480II equipment (Roche, Mannheim, Germany) in a 96-well format and SYBR Green Probe II mode with a standard program with 45 cycles. Fold changes for transcripts in each treatment were calculated with respect to time-matched control groups after normalization with GAPDH and HMBS genes (v2.0.13, Qiagen GbmH, Munich, Germany), using Ct values and reaction efficiencies per amplicon calculated in […]11.3). Statistical differences are reported in this program, with a p-value-associated with a significance for p < 0.05.

NCI-H460 cells [4] = assay: Antiproliferative assay, crystal violet staining; format: cell-based; settings: Homo sapiens, 48 h incubation, CalcuSyn, mean, n = 4, read-out: IC50, antiproliferative effect
Method: NCI-H460 was originally obtained from the American Type Culture Collection (ATCC, Manassas, VA, USA). The cell line was cultured in Dulbecco’s modified Eagle’s medium (DMEM) (Gibco, Waltham, MA, USA) supplemented with 10% (v/v) fetal bovine serum (FBS, Invitrogen, Carlsbad, CA, USA) and 50 µg/mL gentamicin (Sigma, St. Louis, MO, USA). Cells were maintained at 37 °C and 5% CO2.
Antiproliferative effect was determined using crystal violet staining. Cells were seeded in flat-bottom 96-well plates (6000 cells/mL), and 24 h later, serial dilutions 1:2 ranging from 200 to 12.5 µM of CIGB-300 and serial dilutions 1:2 ranging from 50 to 3.12 µM of CX-4945 were added, respectively. After 48 h of incubation, the medium was removed from each well and crystal violet (1%) (Sigma, St. Louis, MO, USA) was added and incubated for 5 min at room temperature. After dye removal, wells were washed with water. Absorbance was measured in a CLARIOstar microplate reader (BMG LABTECH, Ortenberg, Germany), and half-inhibitory concentration (IC50) values were estimated using CalcuSyn software (v2.1) (Biosoft, Cambridge, UK).

[5] = NCI-H460, 5 µM, 6 h, 24 h and 48 h

SMILES	perturbation of cells accumulated in the G0/G1 and S phases of the cell cycle (NCI-H460 cells [1]; NCI-H460, 30 µM, S phase at 6 h, G0/G1 at 24 h and 48 h)	regulatory subunit (β) of CK2 in pull-down fraction (CK2β)	interaction with RPS6 in pull-down fraction (RPS6)	IC50 (other solid tumor cells)	IC50 (NCI-H125)	interaction with CK2α′ in pull-down fraction (CK2α′)	interaction with CK2α in pull-down fraction (CK2α)	interaction with PTEN in pull-down fraction (PTEN)	effect on p-RPS6 (S235/236) (p-RPS6 (S235/236))	IC50 (A549)	effect on c-Myc protein expression (c-Myc; NCI-H460, 30 µM, 0.5 h to 48 h)	apoptotic peak (NCI-H460 cells [2]; NCI-H460, 30 µM, at 6 h)	up-regulation of mRNA levels of CK2 subunits ([3]; NCI-H460, 30 µM, earlier times (0.5 h, 3 h, 6 h))	cell cycle modulation versus untreated cells (NCI-H460 cells [1]; [5])	IC50 (NCI-H460 cells [4])	effect on c-Myc protein expression (c-Myc; NCI-H460, 5 µM, 6 h to 48 h)	changes in the double-positive region of the panel (NCI-H460 cells [2]; [5])	up-regulation of mRNA levels of CK2 subunits ([3]; NCI-H460, 5 µM, longer incubation times (3 h to 24 h))
CSCC[C@@H]1NC(=O)[C@H](Cc2c[nH]c3ccccc23)NC(=O)[C@@H](NC(=O)CCNC(=O)[C@H](CCC(N)=O)NC(=O)[C@@H]2CCCN2C(=O)[C@@H]2CCCN2C(=O)[C@H](CCCNC(=N)N)NC(=O)[C@H](CCCNC(=N)N)NC(=O)[C@H](CCCNC(=N)N)NC(=O)[C@H](CCC(N)=O)NC(=O)[C@H](CCCNC(=N)N)NC(=O)[C@H](CCCNC(=N)N)NC(=O)[C@H](CCCCN)NC(=O)[C@H](CCCCN)NC(=O)[C@H](CCCNC(=N)N)NC(=O)CN)CSSC[C@@H](C(=O)O)NC(=O)[C@H]([C@@H](C)O)NC(=O)CNC(=O)[C@H](CC(C)C)NC(=O)[C@H](Cc2c[nH]cn2)NC(=O)[C@H](CCCNC(=N)N)NC(=O)[C@@H]2CCCN2C(=O)[C@H](CO)NC1=O [CIGB-300] (H-GRKKRRQRRRPPQ[βAla]CWMSPRHLGTC-OH; disulfide 15-25; N-terminus and C-terminus assumed)	10–15%	only minor levels	evident interaction	60 to 300 µM	60 µM	mainly interacted	mainly interacted	did not interact	potent inhibition	171 µM	decreased c-Myc protein expression throughout all incubation times	~50%	no more than 1.5 fold	–	–	–	–	–
O=C(O)c1ccc2c(c1)nc(Nc1cccc(Cl)c1)c1ccncc12 [CX-4945, reference compound]	–	–	–	–	–	–	–	–	–	–	–	–	–	modified the amount of the cell population in all phases of the cell cycle	5 ± 2.1 µM	induced c-Myc up-regulation	did not induce any remarkable changes	no more than 1.5 fold
